In patent US7390625B2, “Apoptosis-associated protein and use thereof” (Takeda Pharmaceutical Company Limited, priority 2002, dated 2008):
Peptide text beside a SMILES is read from it. * marks the point of attachment. Cbz = O=C(OCc1ccccc1)*; CH2F = FC*

Tested on: PAE-ABP1 cells
Experiment: Cell death assay in PAE-ABP1 cells after removal of tetracycline
Type: cell-based, porcine
Conditions: 50 μM, 18 hours after tetracycline removal
Experimental: FIGS. 7A-B show the induction of cell death by ABP1 in PAE-ABP1 cells. FIG. 7A: Phase contrast photomicrographs at 36 hours after cultivation of PAE-ABP1 cells in the presence (+) and absence (−) of tetracycline (Tet) are shown. FIG. 7B: The ratio (%) of cell death from cultivation in the presence of tetracycline (O hour) and at 24 hours and 48 hours after removal of tetracycline.
FIGS. 9A-B show the caspase dependency of cell death by ABP1. FIG. 9A: PAE-ABP1 cells were cultivated in the absence of tetracycline, and caspase-3 activity was measured after 0, 12, 24, and 36 hours. The results are shown as relative values with the value in the presence of tetracycline taken as 1. FIG. 9B: PAE-ABP1 cells were treated with zVAD-fmk (50 μM) simultaneously with removal of tetracycline, and the ratio (%) of dead cells was quantified. Cell death assay was conducted at 18 hours after removal of tetracycline. […]
When these cells were cultured in the absence of tetracycline, cell death was induced with the expression of the ABP1 protein, as in the transient expression of the ABP1 protein in HeLa cells (FIG. 7A). The ratio of dead cells to all cells (the ratio of cells showing a morphological sign of cell death to all cells was determined under a microscope; the results were shown as the mean for three visual fields) was determined to be about 55% at 48 hours after removal of tetracycline (FIG. 7B).

SMILES: COC(=O)C[C@H](NC(=O)[C@H](C)NC(=O)[C@@H](NC(=O)OCc1ccccc1)C(C)C)C(=O)CF [zVAD-fmk, reference compound] (Cbz-Val-Ala-Asp(OMe)-CH2F)
- suppression of cell death caused by ABP1: almost completely suppressed
